# From paper PMC9088016, “Synthesis and biological evaluation of phosphatidylcholines with cinnamic and 3-methoxycinnamic acids with potent antiproliferative activity” (RSC Advances, 2018)
# Like-named read-outs stand apart in the source and are kept apart here.
# How the values were obtained:
# [1] = system: LoVo/DX cells; experiment: Antiproliferative assay in vitro (SRB), 72 h; type: cell-based, human; details: for Resistance index (RI): doxorubicin-resistant LoVo/DX cell line versus LoVo; for IC50: doxorubicin-resistant colon cancer cells, SRB, 72 h exposure, mean ± SD
# Procedure: (§1) Biophenotypic B myelomonocytic leukaemia MV4-11, human lung carcinoma A549, human breast carcinoma MCF-7, human colon carcinoma LoVo, its drug resistant line LoVo/DX, liver carcinoma HepG2, and normal mouse fibroblast BALB/3T3 cells were obtained from the American Type Culture Collection (Rockville, Maryland, USA). All lines are being maintained at the Institute of Immunology and Experimental Therapy, Wrocław, Poland. All cell lines were grown in a humid atmosphere at 37 °C with 5% CO2 and were cultured in media according to the method described before.[18]
# (§2) Prior to usage, the compounds were dissolved in DMSO to the concentration of 25 or 50 mM, and subsequently diluted in the culture medium to reach the required concentrations (ranging from 5 to 625 μM).
# (§3) Twenty-four hours before addition of the tested compounds, the cells were plated in 96-well plates (Sarstedt, USA) at a density of 10^4 cells per well. All cell lines were exposed to each tested phosphatidylcholines for 72 h. Cells were also exposed to the commercially available drugs cisplatin and doxorubicin. Cell lines were also exposed to the solvent used for the tested compounds (DMSO) at concentrations corresponding to those present in the tested agents' dilutions. For adherent cells, a SRB assay was performed and an MTT assay was performed for leukaemia cells.
# (§4) The cytotoxicity assay was performed after 72 h exposure of the cultured cells to varying concentrations (from 5 to 625 μM) of the tested agents. The cells attached to the plastic were fixed in situ by gently adding 50 μL per well of cold 50% TCA (trichloroacetic acid). The plates were incubated at 4 °C for 1 h and then washed five times with tap water. The background optical density was measured in the wells filled with culture medium, without the cells. The cellular material fixed with TCA was stained with 50 μL of 0.4% sulforhodamine B (SRB) dissolved in 1% acetic acid for 30 min. Unbound dye was removed by rinsing (4×) with 1% acetic acid. The protein-bound dye was extracted with 10 mM unbuffered Tris base for determination of the optical density (at 540 nm) in a computer-interfaced 96-well microtiter plate reader Multiskan RC photometer (Labsystems, Helsinki, Finland). Each compound in the given concentration was tested in triplicate in each experiment, which was repeated 3–5 times.
# (§5) The results of the cytotoxic activity in vitro were expressed as IC50—the concentration of compound (in μM) that inhibits the proliferation rate of the tumor cells by 50% as compared to control untreated cells.
# [2] = system: HepG2 cells; experiment: Antiproliferative assay in vitro (SRB), 72 h; type: cell-based, human; details: 72 h exposure, mean ± SD
# Procedure: as §1, §2, §3, §4, §5
# [3] = system: LoVo cells; experiment: Antiproliferative assay in vitro (SRB), 72 h; type: cell-based, human; details: colon cancer cells, 72 h exposure, mean ± SD
# Procedure: as §1, §2, §3, §4, §5
# [4] = system: MCF-7 cells; experiment: Antiproliferative assay in vitro (SRB), 72 h; type: cell-based, human; details: 72 h exposure, mean ± SD
# Procedure: as §1, §2, §3, §4, §5
# [5] = system: A549 cells; experiment: Antiproliferative assay in vitro (SRB), 72 h; type: cell-based, human; details: 72 h exposure, mean ± SD, read-out: IC50 A-549
# Procedure: as §1, §2, §3, §4, §5
# [6] = system: BALB/3T3 cells; experiment: Antiproliferative assay in vitro (SRB), 72 h; type: cell-based, mouse; details: 72 h exposure, mean ± SD
# Procedure: as §1, §2, §3, §4, §5
# [7] = system: MV4-11 cells; experiment: Antiproliferative assay in vitro (MTT), 72 h; type: cell-based, human; details: leukaemia cells, MTT, 72 h exposure, mean ± SD
# Procedure: as §1, §2, §3
# This technique was applied for the cytotoxicity screening against leukemia cells. An assay was performed after 72 h exposure to varying concentrations (from 5 to 625 μM) of the tested agents. For the last 3–4 hours of incubation. 20 μL of MTT solution was added to each well (MTT: 3-(4,5-dimethylthiazol-2-yl)-2,5-diphenyl tetrazolium bromide; stock solution: 5 mg mL^−1, Sigma, Germany). The mitochondria of viable cells reduce the pale yellow MTT to a navy blue formazan: the more viable cells are present in a well, the more MTT will be reduced to formazan. When the incubation time was completed, 80 μL of the lysing mixture was added to each well (lysing mixture: 225 mL dimethylformamide, 67.5 g sodium dodecyl sulphate, and 275 mL of distilled water). After 24 h, when formazan crystals had been dissolved, the optical densities of the samples were read with a Multiskan RC photometer at 570 nm wavelength. Each compound in a given concentration was tested in triplicate in each experiment, which was repeated 3–5 times.
# as §5
# [8] = system: MV4-11 cells; experiment: Determination of the mitochondrial membrane potential (JC-1, flow cytometry); type: cell-based, human; details: 50 μM, 72 h
# Procedure: The loss of mitochondrial membrane potential was estimated using the fluorescent probe JC-1 (Sigma Aldrich, Germany). […] The cells were exposed to the tested compound 5a at a concentration of 50 μM. The MV4-11 cells (5 × 10^5) were washed in phosphate-buffered saline (PBS) containing 2% FBS. The pelleted cells were resuspended in 100 μL of the warm cultured medium with the addition of 10 μL of JC-1 (the final concentration of JC-1 was 3 μg mL^−1) and were then incubated for 30 min at 37 °C. Next, the cells were washed with 1 mL of PBS with 2% FBS and resuspended in 300 μL of PBS with 2% FBS. The mitochondrial membrane potential was analyzed by flow cytometry using BD LSRFortessa cytometry. Compounds at each concentration were tested at least three times independently. The control in the assay was the cells exposed to DMSO at a concentrations of 0.05%. Data were analyzed using Flowing software 2.5.1.
# [9] = system: MV4-11 cells; experiment: Cell death determination by Annexin V and PI staining; type: cell-based, human; details: 50 μM, 72 h
# Procedure: The MV4-11 cells were exposed to the test compound 5a at a concentration of 50 μM for 72 h. After incubation, the cells (2 × 10^5) were washed twice with PBS. APC-Annexin V (BD Pharmingen) was dissolved to the concentration of 1 mg mL^−1 in a binding buffer (HEPES buffer: 10 mM HEPES/NaOH), pH 7.4, 150 mM NaCl, 5 mM KCl, 1 mM MgCl2, 1.8 mM CaCl2, (IIET, Poland) and the cells were suspended in 200 μL of this 1 mg mL^−1 solution (freshly prepared each time). After the incubation in the dark (15 min) at room temperature, the solution (1 mg mL^−1) of propidium iodide (PI) was added prior to the analysis to give a final concentration of 0.1 mg mL^−1. Data acquisition was performed by flow cytometry using a BD LSRFortessa cytometer. Compound 5a was tested at least three times independently. The control in the assay was the cells exposed to DMSO at a concentration of 0.05%. Results were analyzed using Flowing software 2.5.1. […] Double-negative cells were live cells, PI+/Annexin V+ were late apoptotic or necrotic cells, and PI-/Annexin V+ were early apoptotic.
# [10] = system: MV4-11 cells; experiment: Cell cycle analysis (propidium iodide, flow cytometry); type: cell-based, human; details: 50 μM, 72 h
# Procedure: For cell cycle analysis, the cells MV4-11 were treated with the tested compound 5a dissolved in DMSO at a concentration of 50 μM. The cells were treated also only by the DMSO for comparison. After 72 h of incubation, the cells (1 × 10^6) were trypsinized and rinsed with cold PBS. Washed cell pellets were fixed for 24 h in 70% ethanol at −20 °C. After fixation, the cells were washed twice with PBS once again and resuspended in PBS. Next, RNAse (8 μg mL^−1, Fermentas, Germany) was added and the cells were incubated for 1 h at 37 °C. The cells were then stained with propidium iodide (50 μg mL^−1, Sigma Aldrich, Germany) at 4 °C for 30 min and the cellular DNA content was analyzed by flow cytometry using a BD LSRFortessa cytometer (BD Bioscience, San Jose, USA). Compounds at each concentration were tested at least three times independently. The control in the assay was the cells exposed to DMSO at a concentration of 0.05%. Data were analyzed using ModFit 3.2 software (Verity Software, USA).
# [11] = Homo sapiens, HepG2, liver cancer cells
# [12] = Homo sapiens, MCF7, breast cancer cells
# [13] = Homo sapiens, A549, lung cancer cells
# [14] = Mus musculus, BALB/3T3, normal mice fibroblast cells
smiles,measurement,setting,value
"COc1cccc2c1C(=O)c1c(O)c3c(c(O)c1C2=O)C[C@@](O)(C(=O)CO)C[C@@H]3O[C@H]1C[C@H](N)[C@H](O)[C@H](C)O1 [Doxorubicin, doxorubicin, reference compound]",Resistance index (RI),[1],55.81
"N.N.[Cl][Pt][Cl] [Cisplatin, cisplatin, reference compound]",IC50,[2]; liver cancer cells,2.38 ± 0.64 µM
same,IC50,[3],2.56 ± 0.4 µM
same,IC50,[1],3.17 ± 0.2 µM
same,IC50,[4]; breast cancer cells,8.1 ± 0.03 µM
same,IC50,[5]; lung cancer cells,8.6 ± 0.7 µM
same,IC50,[6]; normal mice fibroblast cells,4.2 ± 1.1 µM
same,IC50,[7],1.3 ± 0.47 µM
"C[N+](C)(C)CCOP(=O)([O-])OC[C@@H](COC(=O)C=Cc1ccccc1)OC(=O)C=Cc1ccccc1 [Compound 3a, 1,2-Dicinnamoyl-sn-glycero-3-phosphocholine]",IC50,[2]; [11],> 625 µM
same,IC50,"[3]; Homo sapiens, LoVo",200 ± 49.7 µM
same,IC50,"[1]; Homo sapiens, LoVo/DX",329 ± 12.5 µM
same,Resistance index (RI),[1],1.65
same,IC50,[4]; [12],321 ± 11.1 µM
same,IC50,[5]; [13],> 625 µM
same,IC50,[6]; [14],> 625 µM
same,IC50,"[7]; Homo sapiens, MV4-11",215 ± 51.9 µM
"O=C(O)/C=C/c1ccccc1 [Compound 1a, Cinnamic acid]",IC50,[2]; [11],> 625 µM
same,IC50,"[3]; Homo sapiens, LoVo",284 ± 26.6 µM
same,IC50,"[1]; Homo sapiens, LoVo/DX",> 625 µM
same,IC50,[4]; [12],480 ± 46.2 µM
same,IC50,[5]; [13],> 625 µM
same,IC50,[6]; [14],> 625 µM
same,IC50,"[7]; Homo sapiens, MV4-11",359 ± 105 µM
"CCCCCCCCCCCCCCCC(=O)OC[C@H](COP(=O)([O-])OCC[N+](C)(C)C)OC(=O)C=Cc1ccccc1 [Compound 5a, 1-Palmitoyl-2-cinnamoyl-sn-glycero-3-phosphocholine]",IC50,[2]; [11],228 ± 30.6 µM
same,IC50,"[3]; Homo sapiens, LoVo",52.3 ± 5 µM
same,IC50,"[1]; Homo sapiens, LoVo/DX",56.3 ± 0.8 µM
same,Resistance index (RI),[1],1.08
same,IC50,[4]; [12],64.6 ± 3.4 µM
same,IC50,[5]; [13],56.3 ± 0.4 µM
same,Cells having a significantly lowered mitochondrial membrane potential (Ψm),[8],about 45%
same,"Induction of early apoptotic, apoptotic or necrotic cell death",[9],lack of induction
same,IC50,[6]; [14],114 ± 36.6 µM
same,Effect on cell cycle,[10],arrested cell cycle in the G2/M phase
same,IC50,"[7]; Homo sapiens, MV4-11",43.2 ± 9.9 µM
"CCCCCCCCCCCCCCCC(=O)O[C@H](COC(=O)C=Cc1cccc(OC)c1)COP(=O)([O-])OCC[N+](C)(C)C [Compound 10b, 1-3-Methoxycinnamoyl-2-palmitoyl-sn-glycero-3-phosphocholine]",IC50,[2]; [11],296 ± 13.2 µM
same,IC50,"[3]; Homo sapiens, LoVo",211.6 ± 1.3 µM
same,IC50,"[1]; Homo sapiens, LoVo/DX",254 ± 11.6 µM
same,Resistance index (RI),[1],1.2
same,IC50,[4]; [12],214 ± 89.6 µM
same,IC50,[5]; [13],280 ± 8.8 µM
same,IC50,[6]; [14],291 ± 5.6 µM
same,IC50,"[7]; Homo sapiens, MV4-11",236 ± 46.3 µM
